Patent US9221754B2, “Crystalline forms of zofenopril calcium” (Generics [UK] Limited, priority 2008, dated 2015)
Structures can show the parent of a compound that is named as a salt.

Key:
Format in all cases: physicochemical
[1] = Hygroscopicity of the crystalline forms
[2] = Pellet compression with an Infrared spectrophotometer press machine; conditions: pressure exerted ~10 Tons, calcium salt
[3] = Mechanical stress during particle size reduction (milling using a multimill); conditions: calcium salt
[4] = Slurry in water (10% w/v) exposed to 50-55° C. for six hours; conditions: calcium salt
[5] = Polymorphic purity under dosage form preparation conditions (micronization or wet granulation)

Compound	hygroscopicity [1]	polymorphic stability to compression, by XRPD, DSC and TGA [2]	polymorphic stability to mechanical stress (milling), by XRPD, DSC and TGA [3]	polymorphic stability of the water slurry, by XRPD, DSC and TGA [4]	change in polymorphic purity during dosage form preparation [5]
C[C@H](CSC(=O)c1ccccc1)C(=O)N1C[C@@H](Sc2ccccc2)C[C@H]1C(=O)O [Polymorph E, (4S)-1-[(2S)-3-(benzoylthio)-2-methylpropionyl]-4-(phenylthio)-L-proline calcium salt]	non-hygroscopic	identical to that before compression	retained its polymorphic composition	no change	
C[C@H](CSC(=O)c1ccccc1)C(=O)N1C[C@@H](Sc2ccccc2)C[C@H]1C(=O)O [form C, (4S)-1-[(2S)-3-(benzoylthio)-2-methylpropionyl]-4-(phenylthio)-L-proline calcium salt]					very slight changes in polymorphic purity
C[C@H](CSC(=O)c1ccccc1)C(=O)N1C[C@@H](Sc2ccccc2)C[C@H]1C(=O)O [form F, (4S)-1-[(2S)-3-(benzoylthio)-2-methylpropionyl]-4-(phenylthio)-L-proline calcium salt]	non-hygroscopic				
